These results are taken from patent publication EP0066918A1 (THE PROCTER & GAMBLE COMPANY, priority 1981, dated 1982).

For data set [1], the system named is aspirin-induced gastric lesions. As to the kind of experiment: animal or person. Format: in vivo, Male Sprague-Dawley rats. The note with it: for inhibition in vivo at 125 mg/kg: Rattus norvegicus, po, 2 h, purine derivative dose 125 mg/kg with 125 mg/kg aspirin, read-out: % Reduction in Lesions; for minimization of gastric damage (statement in words): general statement in the description, high dosage = anti-inflammatory:purine ratios from about 1:1.5 to about 1:4; for reduction in lesions / lesion reduction: both 125 mg/kg. The procedure: For these experiments, the test materials were suspended in 0.5% methyl cellulose aqueous solutions. The pH of the aspirin solution was 2.7 and the pH of the solutions containing the purine materials was adjusted to pH 2.7 using HC1.
Male Sprague-Dawley rats were obtained (approximate weight = 150 grams each) and allowed to acclimate for at least 4 days. During this period the animals were allowed Purina Rat Chow and,tap water ad libitum. The animals were food fasted about 18 hours prior to dosing; during this period water was provided ad libitum.
The rats were dosed by oral gavage using a #8 catheter attached to a 1 cc syringe. The animals were dosed and sacrificed according to a predetermined schedule (the dosing order was determined at random prior to starting each experiment). After dosing, the animals were also water fasted.
The rats were sacrificed, either by C02 inhalation or cervical dislocation, two hours after dosing. Their stomachs were removed intact and placed on plastic-backed absorbent paper. The stomachs were then opened along the greater curvature, the fundus and esophagus were removed and the stomach was spread over a piece of white cardboard, using cotton-tipped applicators to level the rugae. The stomachs were then examined, using a dissecting microscope at 7X magnification, and the length of each lesion present was determined using a calibrated reticule.
In this table, N indicates the number of rats tested for the stated dosage.
In other experiments aspirin and adenosine were dosed at separate times.

Data set [2] is described as follows: Toxicity (statement only, no method given). To be noted: no data given.
The subject of data set [3] is aspirin-induced gastric damage. Put plainly: Aspirin-induced gastric lesions in rats, adenosine injected i.p. 15 minutes prior to oral aspirin. Format: in vivo. To be noted: 125 mg/kg aspirin (p.o.) alone. The procedure:
Parenteral administration of adenosine was also found to be protective against aspirin-induced gastric damage, as illustrated by the following experiment.
Rats, chosen and prepared as. above, were dosed with i.p. injections of adenosine in 0.9% sterile physiological saline solution, adjusted to pH 7 with IN NaOH. The adenosine solution was injected 15 minutes prior to an oral dose of 125 mg/kg aspirin.

In data set [4] the test system is Aspirin-induced damage in dogs. Put plainly: Aspirin-induced gastric damage in dogs, endoscopy. The note with it: avg. dose aspirin 97.8-101 mg/kg, adenosine 100 mg/kg simultaneously, cimetidine 30 mg/kg about 1 hour before. Format: in vivo, male beagles. The procedure: Fasted male beagles were orally dosed with tablets of aspirin, aspirin plus adenosine, or aspirin plus cimetidine. The aspirin and adenosine were dosed simultaneously. The cimetidine was dosed approximately 1 hour before the aspirin; the dose level of cimetidine was 5 times that needed to give a 90% reduction in acid secretion. Approximately 19 hours later, the dogs were again dosed and 4 hours later their stomachs were examined by endoscopy. The incidence of erosions was recorded and the overall gastric damage assessed subjectively, using an arbitrary grading scale.

Data set [5] deals with occult blood loss from the G.I. tract. Put plainly: Occult blood loss from the G.I. tract of rats (Fe labeled ferrous citrate, 24 h feces collection). The note with it: Adenosine 0, oral. Format: in vivo, male Sprague-Dawley rats. As to the method: In addition to reducing macroscopic lesions in the stomach produced by aspirin ingestion, adenosine was also found to reduce occult blood loss from the G.I. tract of rats. In these experiments, male Sprague-Dawley rats were injected i.v. with […] Fe labeled ferrous citrate. Eight days after injection, feces were collected for 24 hours to establish base line data. The rats were then dosed orally with aspirin or aspirin-adenosine mixtures, as suspensions in 0.5% methylcellulose, and the feces were again collected for 24 hours. The rats were fasted during the 24-hour pre- dose period and for 2 hours after drug dosing.

SMILES strings stand for the structures. “And” between values parts separate entries of the source, which are not always exact repeats. Equal entries are not always repeated.

Regarding `OC[C@H]1O[C@@H](n2cnc3c2ncn2ccnc32)[C@H](O)[C@@H]1O` [1,N^6-ethenoadenosine], in data set [1] (vs aspirin-alone control), the inhibition in vivo at 125 mg/kg is 50%. For the same compound, in data set [1], the “minimization of gastric damage (statement in words)” value (“minimization of gastric damage” below) is recorded as “work only at relatively high dosage levels”. With `Cn1cnc2c(ncn2[C@@H]2O[C@H](CO)[C@@H](O)[C@H]2O)c1=N` [1-methyl adenosine], the “% Reduction in Lesions” value in data set [1] (purine derivative dose 25 mg/kg with 125 mg/kg aspirin, vs aspirin-alone control) was 16%.

As for `CC1(C)O[C@@H]2[C@H](O1)[C@@H](CO)O[C@H]2n1cnc2c(N)ncnc21` [2',3'-isopropylidine adenosine], in data set [1] (vs aspirin-alone control), the inhibition in vivo at 125 mg/kg came out at 95%. Take `Nc1ncnc2c1ncn2[C@H]1C[C@H](O)[C@@H](COP(=O)(O)O)O1` [2'-deoxy-adenosine-5'-mono-phosphate]: the inhibition in vivo at 125 mg/kg in data set [1] (vs aspirin-alone control) worked out at 16%. Still for that read-out and setting: the value for `Nc1ncnc2c1ncn2[C@H]1C[C@H](O)[C@@H](CO)O1` [2'-deoxyadenosine] was 64%; that for `Nc1ncnc2c1ncn2[C@@H]1O[C@H](CO)C[C@H]1O` [3'-deoxyadenosine] was -47%. As for `CSC[C@H]1O[C@@H](n2cnc3c(N)ncnc32)[C@H](O)[C@@H]1O` [5'-deoxy-5'-methylthioadenosine], in data set [1] (vs aspirin-alone control), the inhibition in vivo at 125 mg/kg is -102%. On the same count and under the same terms, for `Nc1ncnc2c1nnn2[C@@H]1O[C@H](CO)[C@@H](O)[C@H]1O` [8-azaadenosine] the value was 60%. Same read-out and setting: for `Nc1ncnc2c1nc(Br)n2[C@@H]1O[C@H](CO)[C@@H](O)[C@H]1O` [8-bromoadenosine] the value was 76%. In the case of `Nc1ncnc2nc[nH]c12` [Adenine], the “toxicity limits (statement in words)” value in data set [2] is given as “does not fall within the necessary toxicity limits”. The inhibition in vivo at 125 mg/kg in data set [1] (vs aspirin-alone control) is 94%. Also, the “minimization of gastric damage” value in data set [1] is on record as “does work to minimize gastrointestinal damage”. As to `Nc1ncnc2c1ncn2[C@@H]1O[C@H](COP(=O)(O)OP(=O)(O)O)[C@@H](O)[C@H]1O` [Adenosine-5'-diphosphate (ADP), adenosine-5'-diphosphate], the inhibition in vivo at 125 mg/kg in data set [1] (vs aspirin-alone control) is 50%. Besides, the “minimization of gastric damage” value in data set [1] is recorded as “work only at relatively high dosage levels”. With `Nc1ncnc2c1ncn2[C@@H]1O[C@H](COP(=O)(O)OP(=O)(O)OP(=O)(O)O)[C@@H](O)[C@H]1O` [Adenosine-5'-triphosphonate (ATP), adenosine-5'-triphosphate], the “minimization of gastric damage” value in data set [1] is recorded as “work only at relatively high dosage levels”. Turning to `Nc1c2ncn([C@@H]3O[C@H](CO)[C@@H](O)[C@H]3O)c2nc[n+]1[O-]` [Adenosine-N^1-oxide, adenosine-N^1-oxide], in data set [1] (vs aspirin-alone control), the inhibition in vivo at 125 mg/kg came out at 75%. On the same count and under the same terms, the value for `NC(=O)NC1NC(=O)NC1=O` (stereo not drawn) [Allantoin] was 30%. In the case of `CC(=O)Oc1ccccc1C(=O)O` [Aspirin, acetylsalicylic acid], the “Lesion Length (mm) ± SEM” value in data set [1] (125 mg/kg aspirin alone (control), oral, 2 h after dosing) came to 30.4 ±3.1 mm. For the same compound, the “Average Lesion Length (mm) ±SEM” value in data set [3] came to 36.1 ±10.8 mm. In addition, in data set [4] (arbitrary subjective grading scale), the “Avg. Damage Grade” value is 16. The “Avg. In-cidence of Erosions” value in data set [4] (oral tablets, two doses about 19 h apart, endoscopy 4 h after second) was 80%. The “Blood Loss in 24 hrs. (µl) + S.D.” value in data set [5] (Aspirin 125 mg/kg) was 158 ± 46 µL; in data set [5] (Aspirin 300 mg/kg) it was 198 ± 131 µL and 224 ± 98 µL.

On to `Nc1nc2c(ncn2[C@@H]2O[C@H](CO)[C@@H](O)[C@H]2O)c(=O)[nH]1` [Guanosine], for which, in data set [1] (vs aspirin-alone control), the inhibition in vivo at 125 mg/kg was determined as 41%. For the same compound, the “minimization of gastric damage” value in data set [1] is recorded as “not useful”. In the case of `O=c1[nH]cnc2nc[nH]c12` [Hypoxanthine], the inhibition in vivo at 125 mg/kg in data set [1] (vs aspirin-alone control) came out at 13%. Same read-out and setting: for `OC[C@H]1O[C@@H](n2cnc3c(O)ncnc32)[C@H](O)[C@@H]1O` [Inosine] the value was 18%. As for `Nc1ncnc2c1ncn2[C@@H]1O[C@H](CO)[C@@H](O)[C@H]1O` [adenosine], the reduction in lesions in data set [1] (adenosine dosed 10 minutes after aspirin) was under 10%; in data set [1] (adenosine dosed simultaneously with aspirin), “about 90%”. Also, the figures for the lesion reduction entry in data set [1] (adenosine dosed 10 minutes prior to aspirin) and in data set [1] (adenosine dosed 30 minutes prior to aspirin) were “about 60%” and “about 45%”, respectively. On to `Nc1nc2nc[nH]c2c(=O)[nH]1` [guanine], for which the “minimization of gastric damage” value in data set [1] is listed as “not useful”.
